Patent US10479780B2, “Aminopyrazole derivatives” (Chugai Seiyaku Kabushiki Kaisha, priority 2015, dated 2019)
pIC50: −log10 of the molar value.

Columns and labels:
Assay type in all cases: biochemical
[1] = target: T1, human Yes1 enzyme (Homo sapiens, UniProt P07947); assay: Yes1 enzyme inhibitory activity (time-resolved fluorometry, biotinylated peptide phosphorylation); details: biotinylated peptide phosphorylation, read-out: YES_IC50
T1 construct: made in house
Method in brief: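 Inhibition was expressed against a compound-free control to give IC50, using TR-FRET read-out (Eu-cryptate anti-pTyr antibody, streptavidin-XL665).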

[2] = target: T2, human Src enzyme (Homo sapiens, UniProt P12931); assay: Src enzyme inhibitory activity (time-resolved fluorometry, biotinylated peptide phosphorylation); details: biotinylated peptide phosphorylation, read-out: SRC_IC50
T2 construct: purchased Carna Biosciences, Inc. 08-173
T2 sequence (P12931 whole entry): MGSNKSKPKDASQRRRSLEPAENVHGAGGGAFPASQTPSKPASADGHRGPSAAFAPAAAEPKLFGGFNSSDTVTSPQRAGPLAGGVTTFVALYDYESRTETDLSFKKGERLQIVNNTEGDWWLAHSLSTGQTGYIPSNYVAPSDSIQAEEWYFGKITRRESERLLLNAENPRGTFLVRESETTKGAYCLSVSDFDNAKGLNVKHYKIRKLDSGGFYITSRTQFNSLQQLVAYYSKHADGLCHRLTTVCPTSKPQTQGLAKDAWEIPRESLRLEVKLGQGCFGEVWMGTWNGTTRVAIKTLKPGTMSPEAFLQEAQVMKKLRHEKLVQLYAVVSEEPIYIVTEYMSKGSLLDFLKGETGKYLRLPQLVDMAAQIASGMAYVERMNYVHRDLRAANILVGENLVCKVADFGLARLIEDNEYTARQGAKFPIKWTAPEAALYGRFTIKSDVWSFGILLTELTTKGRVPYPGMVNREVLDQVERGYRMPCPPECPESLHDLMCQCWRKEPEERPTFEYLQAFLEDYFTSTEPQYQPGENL
Method in brief: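 Compounds were tested for blocking tyrosine phosphorylation of a biotinylated peptide substrate by recombinant human Src. Phosphorylated product was quantified by time-resolved fluorometry using europium cryptate and XL665 conjugates, and IC50 was calculated against the compound-free control.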

[3] = target: T3, human Lck enzyme (Homo sapiens, UniProt P06239); assay: Lck enzyme inhibitory activity (time-resolved fluorometry, biotinylated peptide phosphorylation); details: biotinylated peptide phosphorylation, read-out: LCK_IC50
T3 construct: purchased Carna Biosciences, Inc. 08-170
T3 sequence (P06239 whole entry): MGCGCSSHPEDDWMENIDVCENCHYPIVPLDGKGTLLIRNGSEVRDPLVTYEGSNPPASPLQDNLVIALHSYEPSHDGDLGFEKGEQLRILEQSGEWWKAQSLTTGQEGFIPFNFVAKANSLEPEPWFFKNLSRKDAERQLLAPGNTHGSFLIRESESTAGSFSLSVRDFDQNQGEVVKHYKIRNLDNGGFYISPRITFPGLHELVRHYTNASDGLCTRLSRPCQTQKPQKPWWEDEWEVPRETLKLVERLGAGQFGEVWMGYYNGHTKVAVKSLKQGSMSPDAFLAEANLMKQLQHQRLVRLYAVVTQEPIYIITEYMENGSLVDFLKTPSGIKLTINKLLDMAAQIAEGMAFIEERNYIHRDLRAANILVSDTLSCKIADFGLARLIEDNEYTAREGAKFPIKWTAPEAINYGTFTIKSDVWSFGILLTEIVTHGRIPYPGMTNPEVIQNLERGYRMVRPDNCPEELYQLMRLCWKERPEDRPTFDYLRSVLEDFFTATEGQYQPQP
Method in brief: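 Readout pairs a europium cryptate-labelled anti-phosphotyrosine antibody with XL665-streptavidin, measured by time-resolved fluorescence. IC50 derived from percent inhibition against untreated controls.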

T1 sequence (P07947 whole entry): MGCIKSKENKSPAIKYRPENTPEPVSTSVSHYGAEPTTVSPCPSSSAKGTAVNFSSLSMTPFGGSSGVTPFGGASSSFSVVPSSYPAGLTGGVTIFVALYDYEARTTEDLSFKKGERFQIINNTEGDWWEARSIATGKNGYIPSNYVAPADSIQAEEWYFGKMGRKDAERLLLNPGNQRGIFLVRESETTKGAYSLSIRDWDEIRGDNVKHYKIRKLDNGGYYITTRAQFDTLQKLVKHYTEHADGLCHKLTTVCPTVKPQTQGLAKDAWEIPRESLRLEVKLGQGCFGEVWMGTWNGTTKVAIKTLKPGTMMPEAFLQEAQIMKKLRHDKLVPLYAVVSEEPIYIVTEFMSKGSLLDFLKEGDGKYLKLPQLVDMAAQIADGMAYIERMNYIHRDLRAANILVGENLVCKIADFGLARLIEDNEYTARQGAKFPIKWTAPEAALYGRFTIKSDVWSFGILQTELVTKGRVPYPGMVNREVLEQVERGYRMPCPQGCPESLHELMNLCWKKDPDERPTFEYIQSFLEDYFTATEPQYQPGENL

## Cc1cc(Oc2ccccc2F)cc(F)c1-n1ncc(C(=O)c2cc3cc(F)c(NS(=O)(=O)CCCF)cc3[nH]2)c1N [Example 4-2-019, N-[2-[5-amino-1-[2-fluoro-4-(2-fluorophenoxy)-6-methylphenyl]pyrazole-4-carbonyl]-5-fluoro-1H-indol-6-yl]-3-fluoropropane-1-sulfonamide]
[1]
  pIC50: 8.28
[2]
  pIC50: 7.14
[3]
  pIC50: 7.40

## Cc1cc(Oc2ccccc2F)ncc1-n1ncc(C(=O)c2cc3cc(F)c(NS(=O)(=O)CCCF)cc3[nH]2)c1N [Example 4-2-020, N-[2-[5-amino-1-[6-(2-fluorophenoxy)-4-methylpyridin-3-yl]pyrazole-4-carbonyl]-5-fluoro-1H-indol-6-yl]-3-fluoropropane-1-sulfonamide]
[1]
  pIC50: 8.70
[2]
  pIC50: 7.23
[3]
  pIC50: 7.96

## Cc1cc(Oc2c(F)cccc2F)ncc1-n1ncc(C(=O)c2cc3cc(F)c(NS(=O)(=O)CCCF)cc3[nH]2)c1N [Example 4-2-021, N-[2-[5-amino-1-[6-(2,6-difluorophenoxy)-4-methylpyridin-3-yl]pyrazole-4-carbonyl]-5-fluoro-1H-indol-6-yl]-3-fluoropropane-1-sulfonamide]
[1]
  pIC50: 8.82
[2]
  pIC50: 7.37
[3]
  pIC50: 8.07

## Cc1cc(Oc2cccc(F)c2F)ncc1-n1ncc(C(=O)c2cc3cc(F)c(NS(=O)(=O)CCCF)cc3[nH]2)c1N [Example 4-2-022, N-[2-[5-amino-1-[6-(2,3-difluorophenoxy)-4-methylpyridin-3-yl]pyrazole-4-carbonyl]-5-fluoro-1H-indol-6-yl]-3-fluoropropane-1-sulfonamide]
[1]
  pIC50: 8.27
[2]
  pIC50: 6.85
[3]
  pIC50: 7.59

## Cc1cc(Oc2ccccc2Cl)ncc1-n1ncc(C(=O)c2cc3cc(F)c(NS(=O)(=O)CCCF)cc3[nH]2)c1N [Example 4-2-023, N-[2-[5-amino-1-[6-(2-chlorophenoxy)-4-methylpyridin-3-yl]pyrazole-4-carbonyl]-5-fluoro-1H-indol-6-yl]-3-fluoropropane-1-sulfonamide]
[1]
  pIC50: 8.77
[2]
  pIC50: 7.08
[3]
  pIC50: 7.33

## Cc1cc(Oc2c(F)cccc2Cl)ncc1-n1ncc(C(=O)c2cc3cc(F)c(NS(=O)(=O)CCCF)cc3[nH]2)c1N [Example 4-2-024, N-[2-[5-amino-1-[6-(2-chloro-6-fluorophenoxy)-4-methylpyridin-3-yl]pyrazole-4-carbonyl]-5-fluoro-1H-indol-6-yl]-3-fluoropropane-1-sulfonamide]
[1]
  pIC50: 8.68
[2]
  pIC50: 7.22
[3]
  pIC50: 7.92

## Cc1ccccc1Oc1cc(C)c(-n2ncc(C(=O)c3cc4cc(F)c(NS(=O)(=O)CCCF)cc4[nH]3)c2N)cn1 [Example 4-2-025, N-[2-[5-amino-1-[4-methyl-6-(2-methylphenoxy)pyridin-3-yl]pyrazole-4-carbonyl]-5-fluoro-1H-indol-6-yl]-3-fluoropropane-1-sulfonamide]
[1]
  pIC50: 8.62
[2]
  pIC50: 7.28
[3]
  pIC50: 7.46

## Cc1cc(Oc2cccc(Cl)c2)ncc1-n1ncc(C(=O)c2cc3cc(F)c(NS(=O)(=O)CCCF)cc3[nH]2)c1N [Example 4-2-026, N-[2-[5-amino-1-[6-(3-chlorophenoxy)-4-methylpyridin-3-yl]pyrazole-4-carbonyl]-5-fluoro-1H-indol-6-yl]-3-fluoropropane-1-sulfonamide]
[1]
  pIC50: 8.44
[2]
  pIC50: 6.92
[3]
  pIC50: 7.43

## Cc1cc(Oc2ccc(F)cc2)ncc1-n1ncc(C(=O)c2cc3cc(F)c(NS(=O)(=O)CCCF)cc3[nH]2)c1N [Example 4-2-027, N-[2-[5-amino-1-[6-(4-fluorophenoxy)-4-methylpyridin-3-yl]pyrazole-4-carbonyl]-5-fluoro-1H-indol-6-yl]-3-fluoropropane-1-sulfonamide]
[1]
  pIC50: 8.00
[2]
  pIC50: 7.02
[3]
  pIC50: 7.52

## Cc1cc(Oc2cc(F)cc(F)c2)ncc1-n1ncc(C(=O)c2cc3cc(F)c(NS(=O)(=O)CCCF)cc3[nH]2)c1N [Example 4-2-028, N-[2-[5-amino-1-[6-(3,5-difluorophenoxy)-4-methylpyridin-3-yl]pyrazole-4-carbonyl]-5-fluoro-1H-indol-6-yl]-3-fluoropropane-1-sulfonamide]
[1]
  pIC50: 7.82
[2]
  pIC50: 6.47
[3]
  pIC50: 6.92

## Cc1cc(Oc2cccc(F)c2F)ccc1-n1ncc(C(=O)c2cc3cc(F)c(NS(C)(=O)=O)cc3[nH]2)c1N [Example 4-2-029, N-[2-[5-amino-1-[4-(2,3-difluorophenoxy)-2-methylphenyl]pyrazole-4-carbonyl]-5-fluoro-1H-indol-6-yl]methanesulfonamide]
[1]
  pIC50: 9.19
[2]
  pIC50: 7.55
[3]
  pIC50: 8.26

## Cc1cc(Oc2cc(F)ccc2F)ncc1-n1ncc(C(=O)c2cc3cc(F)c(NS(C)(=O)=O)cc3[nH]2)c1N [Example 4-2-030, N-[2-[5-amino-1-[6-(2,5-difluorophenoxy)-4-methylpyridin-3-yl]pyrazole-4-carbonyl]-5-fluoro-1H-indol-6-yl]methanesulfonamide]
[1]
  pIC50: 8.77
[2]
  pIC50: 6.96
[3]
  pIC50: 7.59

## Cc1cc(Oc2c(F)cccc2F)ncc1-n1ncc(C(=O)c2cc3cc(F)c(NS(C)(=O)=O)cc3[nH]2)c1N [Example 4-2-031, N-[2-[5-amino-1-[6-(2,6-difluorophenoxy)-4-methylpyridin-3-yl]pyrazole-4-carbonyl]-5-fluoro-1H-indol-6-yl]methanesulfonamide]
[1]
  pIC50: 9.16
[2]
  pIC50: 7.43
[3]
  pIC50: 8.37

## Cc1cc(Oc2cccc(F)c2F)ncc1-n1ncc(C(=O)c2cc3cc(F)c(NS(C)(=O)=O)cc3[nH]2)c1N [Example 4-2-032, N-[2-[5-amino-1-[6-(2,3-difluorophenoxy)-4-methylpyridin-3-yl]pyrazole-4-carbonyl]-5-fluoro-1H-indol-6-yl]methanesulfonamide]
[1]
  pIC50: 8.46
[2]
  pIC50: 7.04
[3]
  pIC50: 7.57

## Cc1cc(Oc2ccccc2Cl)ncc1-n1ncc(C(=O)c2cc3cc(F)c(NS(C)(=O)=O)cc3[nH]2)c1N [Example 4-2-033, N-[2-[5-amino-1-[6-(2-chlorophenoxy)-4-methylpyridin-3-yl]pyrazole-4-carbonyl]-5-fluoro-1H-indol-6-yl]methanesulfonamide]
[1]
  pIC50: 9.04
[2]
  pIC50: 7.31
[3]
  pIC50: 7.72

## Cc1cc(Oc2cc(F)ccc2Cl)ncc1-n1ncc(C(=O)c2cc3cc(F)c(NS(C)(=O)=O)cc3[nH]2)c1N [Example 4-2-034, N-[2-[5-amino-1-[6-(2-chloro-5-fluorophenoxy)-4-methylpyridin-3-yl]pyrazole-4-carbonyl]-5-fluoro-1H-indol-6-yl]methanesulfonamide]
[1]
  pIC50: 8.34
[2]
  pIC50: 6.85
[3]
  pIC50: 7.36

## Cc1cc(Oc2c(F)cccc2Cl)ncc1-n1ncc(C(=O)c2cc3cc(F)c(NS(C)(=O)=O)cc3[nH]2)c1N [Example 4-2-035, N-[2-[5-amino-1-[6-(2-chloro-6-fluorophenoxy)-4-methylpyridin-3-yl]pyrazole-4-carbonyl]-5-fluoro-1H-indol-6-yl]methanesulfonamide]
[1]
  pIC50: 8.89
[2]
  pIC50: 7.23
[3]
  pIC50: 8.17

## Cc1ccccc1Oc1cc(C)c(-n2ncc(C(=O)c3cc4cc(F)c(NS(C)(=O)=O)cc4[nH]3)c2N)cn1 [Example 4-2-036, N-[2-[5-amino-1-[4-methyl-6-(2-methylphenoxy)pyridin-3-yl]pyrazole-4-carbonyl]-5-fluoro-1H-indol-6-yl]methanesulfonamide]
[1]
  pIC50: 8.82
[2]
  pIC50: 7.22
[3]
  pIC50: 7.68
